According to patent US9974766B2, “Prenylated isoflavones for treatment of subjects with multidrug-resistant cancer” (Macau University of Science and Technology, priority 2015, dated 2018):
Entries after “also recorded” stand apart in the source; their conditions may differ.

Key:
[1] = tested on: MCF-7 (Breast) (Taxol sensitive); test: MTT cytotoxicity assay, MCF-7 Taxol sensitive; assay type: cell-based; details: Homo sapiens, MCF7, 72 h, 3 days
Experimental: (§1) Cell cultures and cytotoxicity assays have been carried out. […] Subsequently, 10 μL of MTT reagents is added to each well and incubated at 37° C. for 4 hours followed by the addition of 100 μL solubilization buffer (10% SDS in 0.01 mol/L HCl) and overnight incubation. Absorbance at 585 nm is determined from each well the next day. The percentage of cell viability is calculated using the following formula: Cell viability (%)=Cells number treated/Cells number DMSO control×100. Data are obtained from three independent experiments. The resistant factor is calculated by dividing the IC50 in resistant cells by its IC50 against drug-sensitive cells.

[2] = tested on: A549 (Lung) (Taxol resistant); test: MTT cytotoxicity assay, A549 Taxol resistant; assay type: cell-based, human; details: for IC50: Homo sapiens, A549, 72 h, MTT, 3 days; for Resistant Factor: IC50 in Taxol resistant A549 divided by IC50 in Taxol sensitive A549
Experimental: as §1

[3] = tested on: MCF-7 (Breast) (Taxol resistant); test: MTT cytotoxicity assay, MCF-7 Taxol resistant; assay type: cell-based, human; details: for IC50: Homo sapiens, MCF7, 72 h, MTT, 3 days; for Resistant Factor: IC50 in Taxol resistant MCF-7 divided by IC50 in Taxol sensitive MCF-7
Experimental: as §1

[4] = tested on: A549 (Lung) (Taxol sensitive); test: MTT cytotoxicity assay, A549 Taxol sensitive; assay type: cell-based; details: Homo sapiens, A549, 72 h, 3 days
Experimental: as §1

[5] = tested on: HCT-8 (Colon) (Taxol resistant); test: MTT cytotoxicity assay, HCT-8 Taxol resistant; assay type: cell-based, human; details: for IC50: Homo sapiens, HCT-8, 72 h, MTT, 3 days; for Resistant Factor: IC50 in Taxol resistant HCT-8 divided by IC50 in Taxol sensitive HCT-8
Experimental: as §1

[6] = tested on: HCT-8 (Colon) (Taxol sensitive); test: MTT cytotoxicity assay, HCT-8 Taxol sensitive; assay type: cell-based; details: Homo sapiens, HCT-8, 72 h, 3 days
Experimental: as §1

[7] = tested on: MCF-7 (Breast) (Dox resistant); test: MTT cytotoxicity assay, MCF-7 Dox resistant; assay type: cell-based, human; details: for IC50: Homo sapiens, MCF7, 72 h, MTT, 3 days; for Resistant Factor: IC50 in Dox resistant MCF-7 divided by IC50 in Dox sensitive MCF-7
Experimental: as §1

[8] = tested on: MCF-7 (Breast) (Dox sensitive); test: MTT cytotoxicity assay, MCF-7 Dox sensitive; assay type: cell-based; details: Homo sapiens, MCF7, 72 h, 3 days
Experimental: as §1

P-glycoprotein [9] = target: P-glycoprotein (Homo sapiens, UniProt P08183); test: Rho123 efflux assay in A549 taxol-resistant lung cancer cells; details: Example 8, 10 μM of each compound, 24 h, then Rho123 1 h
[10] = tested on: A549 taxol-resistant lung cancer cells; test: Annexin V/propidium iodide flow cytometry of cell death, A549 taxol-resistant; assay type: cell-based, human; details: 1-10 μM pomiferin with 40 μM taxol, 24 h
Experimental: (§2) Cell death and viability are measured using an Annexin V staining kit (BD Biosciences, San Jose, Calif., USA). […] Cells were then harvested and analysed by multiparametric flow cytometry using FITC-Annexin V and propidium iodide staining (BD Biosciences, San Jose, Calif., USA) according to the manufacturer's instructions. Flow cytometry has been then carried out using a FACSCalibur flow cytometer (BD Biosciences, San Jose, Calif., USA). […] Data were obtained from three independent experiments.

P-glycoprotein [11] = test: Rho123 efflux assay in MCF-7 taxol/doxorubicin-sensitive breast cancer cells; details: MCF-7 drug-sensitive cells without P-glycoprotein expression; pomiferin 5-20 μM or verapamil 10 μM, 24 h, then Rho123 1 h
[12] = tested on: HCT-8 taxol-resistant colon cancer cells; test: Annexin V/propidium iodide flow cytometry of cell death, HCT-8 taxol-resistant; assay type: cell-based, human; details: 1-10 μM pomiferin with 40 μM taxol, 24 h
Experimental: as §2

Chain of P-glycoprotein (Homo sapiens, UniProt P08183) (P08183 whole entry): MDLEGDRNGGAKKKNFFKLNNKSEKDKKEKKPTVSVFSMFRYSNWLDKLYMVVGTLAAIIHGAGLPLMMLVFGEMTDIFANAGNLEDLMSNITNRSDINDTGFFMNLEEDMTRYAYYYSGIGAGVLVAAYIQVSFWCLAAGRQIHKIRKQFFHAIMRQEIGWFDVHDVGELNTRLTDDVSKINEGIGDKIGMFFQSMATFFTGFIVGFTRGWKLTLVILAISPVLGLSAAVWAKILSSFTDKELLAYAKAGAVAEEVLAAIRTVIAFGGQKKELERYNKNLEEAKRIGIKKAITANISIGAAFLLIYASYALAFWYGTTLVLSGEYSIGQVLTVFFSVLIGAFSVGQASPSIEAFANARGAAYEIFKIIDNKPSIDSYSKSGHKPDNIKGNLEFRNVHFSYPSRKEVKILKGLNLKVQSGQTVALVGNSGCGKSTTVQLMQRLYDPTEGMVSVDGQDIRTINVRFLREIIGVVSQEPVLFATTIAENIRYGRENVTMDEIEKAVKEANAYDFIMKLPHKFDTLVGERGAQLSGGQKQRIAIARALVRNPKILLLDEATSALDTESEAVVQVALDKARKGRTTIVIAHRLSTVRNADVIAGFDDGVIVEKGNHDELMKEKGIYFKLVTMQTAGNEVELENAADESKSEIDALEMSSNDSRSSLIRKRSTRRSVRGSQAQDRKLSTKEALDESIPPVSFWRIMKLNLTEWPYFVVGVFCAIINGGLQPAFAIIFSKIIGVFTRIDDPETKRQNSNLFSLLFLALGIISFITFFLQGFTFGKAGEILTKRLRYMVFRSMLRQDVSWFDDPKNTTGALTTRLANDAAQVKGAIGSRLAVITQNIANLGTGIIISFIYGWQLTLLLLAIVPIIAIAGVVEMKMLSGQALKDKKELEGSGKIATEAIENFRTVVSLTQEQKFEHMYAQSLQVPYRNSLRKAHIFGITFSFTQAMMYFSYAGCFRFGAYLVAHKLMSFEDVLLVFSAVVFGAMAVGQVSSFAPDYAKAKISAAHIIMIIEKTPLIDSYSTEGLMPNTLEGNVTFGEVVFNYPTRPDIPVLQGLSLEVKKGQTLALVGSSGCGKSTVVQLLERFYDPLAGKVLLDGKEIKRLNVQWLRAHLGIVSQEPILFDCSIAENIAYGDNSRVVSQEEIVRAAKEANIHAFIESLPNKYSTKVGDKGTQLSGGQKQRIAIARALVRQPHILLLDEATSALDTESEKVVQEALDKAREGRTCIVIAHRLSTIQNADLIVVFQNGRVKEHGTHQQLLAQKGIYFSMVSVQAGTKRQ

Q: Which results are given for `CC(=O)O[C@H]1C(=O)[C@@]2(C)[C@H]([C@H](OC(=O)c3ccccc3)[C@]3(O)C[C@H](OC(=O)[C@H](O)[C@@H](NC(=O)c4ccccc4)c4ccccc4)C(C)=C1C3(C)C)[C@]1(OC(C)=O)CO[C@@H]1C[C@@H]2O` [Taxol, paclitaxel, reference compound]?
A: IC50 [1]: < 0.001 µM; IC50 [2]: 31.3 µM; Resistant Factor [2]: 1012.945×; Resistant Factor ([2]; listed as taxol): 1000 ×; IC50 [3]: 5 µM; Resistant Factor [3]: 5000×; Resistant Factor ([3]; listed as taxol): over 5000 ×; IC50 [4]: 0.0309 µM; IC50 [5]: 35.3 µM; Resistant Factor [5]: >35300×; Resistant Factor ([5]; listed as taxol): 35300 ×; IC50 [6]: < 0.001 µM

Q: How did the IC50 [7] turn out when `COc1cccc2c1C(=O)c1c(O)c3c(c(O)c1C2=O)C[C@@](O)(C(=O)CO)C[C@@H]3O[C@H]1C[C@H](N)[C@H](O)[C@H](C)O1` [doxorubicin, reference compound] was run?
A: 10 µg/mL

Q: What about the “Resistant Factor” value [7] of the same molecule?
A: 21.6 ×

Q: And the IC50 [8]?
A: 0.463 µg/mL

Q: With `CC1(C)C=Cc2c(c3c(c4c(=O)c(-c5ccc(O)cc5)coc24)OC(C)(C)CC3)O1` [isoosajin, 3,4-dihydro-11-(4-hydroxyphenyl)-2,2,6,6-tetramethyl-2H,6H,12H-benzo[1,2-b:3,4-b′:5,6-b″]tripyran-12-one] as the molecule, how does the “P-glycoprotein inhibition (Rho123 accumulation)” value (“P-glycoprotein inhibition” below) (P-glycoprotein [9]) read?
A: showed P-glycoprotein inhibition with a different extent; also recorded: comparable effect compared to pomiferin

Q: How did the “P-glycoprotein inhibition” value (P-glycoprotein [9]) turn out when `CC1(C)C=Cc2c(c3c(c4c(=O)c(-c5ccc(O)c(O)c5)coc24)OC(C)(C)CC3)O1` [isopomiferin, 7,8-dihydro-3-(3,4-dihydroxyphenyl)-6,6,10,10-tetramethyl-4H,6H,10H-benzo[1,2-b:3,4-b′:5,6-b″]tripyran-4-one] was run?
A: showed P-glycoprotein inhibition with a different extent; also recorded: comparable effect compared to pomiferin

Q: For `COc1ccc(-c2coc3c4c(c(CC=C(C)C)c(O)c3c2=O)OC(C)(C)C=C4)cc1` [osajin 4′-methyl ether], which “P-glycoprotein inhibition” value (P-glycoprotein [9]) is on record?
A: showed P-glycoprotein inhibition with a different extent

Q: Which “P-glycoprotein inhibition” value (P-glycoprotein [9]) does the source give for `COc1ccc(C2COc3c4c(c(CC=C(C)C)c(OC)c3C2=O)OC(C)(C)C=C4)cc1OC` (stereo not shown) [pomiferin trimethyl ether] here?
A: showed P-glycoprotein inhibition with a different extent

Q: With `CC(C)=CCc1c2c(c3occ(-c4ccc(O)c(O)c4)c(=O)c3c1O)C=CC(C)(C)O2` [pomiferin, 3-(3,4-dihydroxyphenyl)-5-hydroxy-8,8-dimethyl-6-(3-methylbut-2-enyl)pyrano[2,3-h] chromen-4-one] as the molecule, how does the “effect on taxol-mediated cytotoxicity (cell death)” value [10] read?
A: significantly enhanced the taxol-mediated cytotoxicity

Q: What about the IC50 [1] of the same molecule?
A: 35.7 µM

Q: And the IC50 [2]?
A: 17.2 µM

Q: And the “Resistant Factor” value [2]?
A: 0.95 ×

Q: And the “Resistant Factor” value ([2]; listed as Pomiferin)?
A: 0.95×

Q: And the IC50 [3]?
A: 27.1 µM

Q: What about the “Resistant Factor” value [3] of the same molecule?
A: 0.76 ×

Q: What about the “Resistant Factor” value ([3]; listed as Pomiferin) of the same molecule?
A: 0.76×

Q: What about the “Rho123 fluorescence signal / accumulation in cells” value (P-glycoprotein [11]) of the same molecule?
A: no difference in fluorescence signal compared with Rho123 stained cells

Q: What about the IC50 [7] of the same molecule?
A: 15.2 µM

Q: And the “Resistant Factor” value [7]?
A: 0.42 ×

Q: And the IC50 [4]?
A: 18.2 µM

Q: And the IC50 [5]?
A: 17.6 µM

Q: What about the “Resistant Factor” value [5] of the same molecule?
A: 0.69 ×

Q: And the “Resistant Factor” value ([5]; listed as Pomiferin)?
A: 0.69×

Q: What about the IC50 [6] of the same molecule?
A: 25.5 µM

Q: And the “effect on taxol-mediated cytotoxicity (cell death)” value [12]?
A: enhanced taxol-mediated cytotoxicity

Q: And the IC50 [8]?
A: 35.9 µM
